This is an account of results in the Kinase Knowledgebase extract (Sharma et al. 2016).

For the assay, the target named is ROCK2 (human) (UniProt O75116). The assay can be described thus: Inhibition of ROCK2 Kinase Activity.
ROCK2 (human), sequence (O75116 whole entry, looked up): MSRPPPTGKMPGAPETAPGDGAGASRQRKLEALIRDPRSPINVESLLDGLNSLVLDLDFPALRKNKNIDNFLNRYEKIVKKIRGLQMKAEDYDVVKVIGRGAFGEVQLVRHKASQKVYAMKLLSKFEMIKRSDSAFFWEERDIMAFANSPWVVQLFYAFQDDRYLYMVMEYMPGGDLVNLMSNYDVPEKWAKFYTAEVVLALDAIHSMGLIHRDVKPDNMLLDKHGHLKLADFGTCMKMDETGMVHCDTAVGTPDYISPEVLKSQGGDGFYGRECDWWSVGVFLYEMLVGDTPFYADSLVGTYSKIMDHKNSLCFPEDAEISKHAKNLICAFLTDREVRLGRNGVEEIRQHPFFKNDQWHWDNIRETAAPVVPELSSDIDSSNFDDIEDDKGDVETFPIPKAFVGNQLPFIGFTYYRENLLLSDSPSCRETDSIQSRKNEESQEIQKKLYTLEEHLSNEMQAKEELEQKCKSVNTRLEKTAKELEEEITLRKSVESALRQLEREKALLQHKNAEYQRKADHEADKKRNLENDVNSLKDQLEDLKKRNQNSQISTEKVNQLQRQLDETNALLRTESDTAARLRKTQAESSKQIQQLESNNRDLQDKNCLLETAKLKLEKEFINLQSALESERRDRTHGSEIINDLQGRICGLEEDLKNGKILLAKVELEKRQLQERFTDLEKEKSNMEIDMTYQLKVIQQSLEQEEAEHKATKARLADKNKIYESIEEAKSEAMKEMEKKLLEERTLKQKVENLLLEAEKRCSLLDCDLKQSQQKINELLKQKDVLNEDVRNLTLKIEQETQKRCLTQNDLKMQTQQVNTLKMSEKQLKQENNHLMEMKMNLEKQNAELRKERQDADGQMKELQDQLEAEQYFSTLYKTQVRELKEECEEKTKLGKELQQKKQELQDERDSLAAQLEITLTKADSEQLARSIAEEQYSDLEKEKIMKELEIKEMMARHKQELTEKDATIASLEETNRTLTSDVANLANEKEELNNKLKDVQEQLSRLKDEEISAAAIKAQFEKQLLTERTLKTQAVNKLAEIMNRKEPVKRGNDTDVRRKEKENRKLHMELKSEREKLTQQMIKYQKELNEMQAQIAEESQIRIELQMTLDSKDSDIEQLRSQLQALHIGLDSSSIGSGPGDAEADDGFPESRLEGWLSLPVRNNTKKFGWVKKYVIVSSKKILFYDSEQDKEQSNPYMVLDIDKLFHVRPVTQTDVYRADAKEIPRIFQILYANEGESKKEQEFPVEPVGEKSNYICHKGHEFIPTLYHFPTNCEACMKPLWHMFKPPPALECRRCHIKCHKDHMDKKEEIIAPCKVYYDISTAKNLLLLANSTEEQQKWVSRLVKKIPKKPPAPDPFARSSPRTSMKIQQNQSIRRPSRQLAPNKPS
The IC50 is the concentration that gives 50% inhibition. As for `Nc1nccc(-c2ccc3nc(C4COc5ccc(CC(=O)NC6CC6)cc5C4)[nH]c3c2)n1` (stereo unspecified), the IC50 turned out to be 0.8 nM.

Consider `NC(=O)c1ccc2c(c1)CC(c1nc3ccc(-c4ccnc(N)n4)cc3[nH]1)CO2` (stereo unspecified), for which the IC50 is 4 nM. `CN(C)S(=O)(=O)c1ccc2c(c1)CC(c1nc3ccc(-c4ccnc(N)n4)cc3[nH]1)CO2` (stereo unspecified) came in with an IC50 of 40 nM. Next, `N#Cc1ccc2c(c1)CC(c1nc3ccc(-c4ccnc(N)n4)cc3[nH]1)CO2` (stereo unspecified): 43 nM; `Nc1nccc(-c2ccc3nc(C4COc5ccc(F)cc5C4)[nH]c3c2)n1` (stereo unspecified): 4.7 nM; `Nc1nccc(-c2ccc3nc(C4COc5ccc(C(=O)NCc6ccccc6)cc5C4)[nH]c3c2)n1` (stereo unspecified): less than 1 nM. Next, `Nc1nccc(-c2ccc3nc(C4COc5ccc(Br)cc5C4)[nH]c3c2)n1` (stereo unspecified): 10 nM. Next, `Nc1nccc(-c2ccc3nc(C4COc5ccc(C(=O)NCCN6CCOCC6)cc5C4)[nH]c3c2)n1` (stereo unspecified): 1.2 nM; `CCCOc1ccc2c(c1)CC(c1nc3ccc(-c4ccnc(N)n4)cc3[nH]1)CO2` (stereo unspecified): 316 nM; `CC(=O)c1ccc2c(c1)CC(c1nc3ccc(-c4ccnc(N)n4)cc3[nH]1)CO2` (stereo unspecified): 2.7 nM.

For `Nc1nccc(-c2ccc3nc(C4COc5ccc(C(=O)NC6CC6)cc5C4)[nH]c3c2)n1` (stereo unspecified), the IC50 turned out to be 1.2 nM.
